In brackets after ≈: the same amount, converted by molar mass. Entries after “also recorded” stand apart in the source; their conditions may differ. Like-named read-outs stand apart in the source and are kept apart here.
Tests used:
[1] = tested on: platelet aggregation; experiment: in vitro inhibitory effect on platelet aggregation induced by 10 μM ADP in platelet rich plasma; type: cell-based; conditions: for IC50: read-out: in vitro antiaggregant effect IC50 (50% platelet aggregation inhibiting concentration)
Text: IC50 = 50% platelet aggregation inhibiting concentration.

[2] = tested on: anaesthetized rat; experiment: hypotensive effect on the anaesthetized rat; type: in vivo; conditions: PGI2 = 100
[3] = antiulcerogenic activity compared with PGI2 at equi-active antiaggregant doses; type: in vivo
[4] = tested on: hamster; experiment: in vitro luteolytic activity in the hamster compared with PGI2 at equally active antiaggregant doses
[5] = product of reaction of PGI2 with acid; cited from earlier work
[6] = tested on: gastric mucous membrane; conditions: ulcers induced by e.g. acetyl salicylic acid and indomethacin; test animals, e.g. the rat; cited from earlier work
[7] = tested on: blood platelet; conditions: infused in man; cited from earlier work
[8] = tested on: test animals; conditions: cited from earlier work
[9] = tested on: uterus; conditions: person; cited from earlier work
[10] = tested on: uterus; conditions: monkey; cited from earlier work
[11] = tested on: asthmatic patients; conditions: inhaled; cited from earlier work
[12] = acid; enol ether; listed as natural prostacyclin; cited from earlier work
[13] = tested on: man; conditions: infused in man; cited from earlier work
[14] = 10 μM ADP, platelet rich plasma

With `CCCCC[C@H](O)/C=C/[C@@H]1[C@H]2C/C(=C/CCCC(=O)O)C[C@H]2C[C@H]1O` [(2), 5t,13t-11α,15S-dihydroxy-9a-deoxy-9a-methylene-prostacycla-5,13-dienoic acid] the IC50 ([1]; Platelet) was 0.025 µg/mL (≈ 0.0713 µM) and the “hypotensive effect potency ratio” value [2] was 1.15.
With “dl-5,13t-11α,15S-dihydroxy-9a-deoxy-7-nor-methylene-prostacycla-5,13-dienoic acid” the “antiulcerogenic activity relative to PGI2” value [3] was “ten times greater”.
With “5c,13t-11α,15S-dihydroxy-9a-deoxy-9a,7a-homo-dimethylene-16-phenoxy- 17,18,19,20-tetranor,prostacycla-5,13-dienoic acid” the “in vitro luteolytic activity relative to PGI2” value [4] was 8 times greater.
For “5t,13t-11α,15S-dihydroxy-9a-deoxy-9a,7a-homo-dimethylene-prostacycla- 5,13-dienoic acid [(3)]”, the “in vitro antiaggregant effect IC50 (50% platelet aggregation inhibiting concentration)” value [1, 14] was 20 ηg/ml and the “hypotensive effect potency ratio” value [2] was 0.25.
For `CCCCC[C@H](O)/C=C/[C@@H]1[C@@H](CC(=O)CCCCC(=O)O)[C@@H](O)C[C@H]1O` [6-keto-PGF1α], the “biological activity characteristic of natural prostacyclin” value [5] is given as “almost none of the biological activity”.
For “dl-5,13t-11α,15S-dihydroxy-9a-deoxy-9a,9b-dimethylene-17-cyclohexyl- 18,19,20-trinor-prostacycla-5,13-dienoic acid”, the “in vitro luteolytic activity relative to PGI2” value [4] was 5 times greater.
For `CCCCC[C@H](O)/C=C/[C@@H]1[C@H]2C/C(=C/CCCC(=O)O)O[C@H]2C[C@H]1O` [(1), 6,9α-oxide-11α,15(S)-dihydroxy-prosta-5(Z),13(E)-dienoic acid], the IC50 [1, 14] is listed as 0.001 µg/mL (≈ 0.00284 µM), the “protection of gastric mucous membrane from ulcers” value [6] is listed as “able to protect the gastric mucous membrane from ulcers” and the “blood platelet anti-aggregant and disaggregant properties” value [7] is listed as “blood platelet anti-aggregant and disaggregant properties”. The “hypotensive effect potency ratio” value [2] was 100, the luteolytic activity [8] was “luteolytic activity” and the uterus stimulant action [9] was “uterus stimulant action”. For the same compound, the uterus stimulant action [10] was “uterus stimulant action”, the prevention of bronchoconstriction [11] was “prevents aspecifically induced (e.g. by nebulized water or by effort) bronchocostriction” and the “chemical stability of natural prostacyclin” value [12] was “extremely acid sensitive; also recorded: marked chemical instability”. For the same compound, the “hypotensive and vasodilator activity” value [13] was “hypotensive and vasodilator activity”.
